Laboratory results as given in patent publication US20240226017A1, “ERODIBLE TABLET” (Eli Lilly and Company, priority 2021, published 2024).
Where two headings read alike, the source gives them in different places. Marks after values point to notes of the source that are not given here.

Experiments:
[1] = human, in vivo
Protocol: A multiple-ascending dose study is conducted to study the safety, tolerability, and pharmacokinetics of erodible tablets containing Compound 2 administered as 3 consecutive, once-daily oral doses in healthy participants. Tablets are prepared having the composition set forth in Table 18 below using a direct compression process as described for Example 22 in Table 7 above. Average solid fraction of tablets was 0.90. The Compound 2 oral doses for this study are summarized in the following 4 “dose cohorts”: • Cohort 1, 4-mg dose: 1 tablet of 4 mg Compound 2+300 mg SNAC • Cohort 2, 8-mg dose:2 tablets of 4 mg Compound 2+300 mg SNAC • Cohort 3, 12-mg dose: 1 tablet of 12 mg Compound 2+300 mg SNAC • Cohort 4, 24-mg dose:2 tablets of 12 mg Compound 2+300 mg SNAC Sufficient participants are randomly assigned to study intervention to ensure approximately 10 evaluable participants (8 receiving Compound 2 and 2 receiving placebo) from each of 4 dose cohorts complete the study. In each cohort, eligible participants are randomly assigned to receive 3 once-daily doses of either Compound 2 or placebo. Data for the 4 cohorts are provided in Table 18 below, along with a comparison to IV data from a separate study having similar protocol design and conducted at the same clinical site.

in vivo [2] = assay: in vivo; parameters: species or system cynomolgus monkeys; settings: male, cynomolgus monkey, iv
Protocol: Plasma concentrations of Compound 1 are determined by a LC/MS method that measures intact Compound 1, peptide plus linked time extension. For each assay, Compound 1 and an IS, are extracted from 100% monkey plasma. This procedure involves initially thoroughly mixing the plasma sample (50 μl) with acetonitrile:water:formic acid (50:50:0.1; 25 μl) plus 2-propanol:methanol (50:50; 250 μl). Two distinct layers are formed upon centrifugation with Compound 1 and the IS contained in the supernatant layer. After moving 200-μL of the supernatant layer to the Sirocco Protein Precipitation plate, the plate is centrifuged (conditions). Next 600-μL of Water:Formic (100:2; 600 μl) are added to each well of the Sirocco plate, and the plate is vortexed, sealed, and centrifuged. After SPE plate conditioning, the sample from the Sirocco plate (700 μl) is transferred to a Waters, SPE plate, and centrifuged. The SPE plate, after washing, is eluted with acetonitrile:formic acid (100:2; 80 μl) into Invitrosol:water:water:formic acid 100:2 (35:15:50; 100 μl). The final sample (25 μl) is loaded onto a Waters, ACQUITY UPLC BEH C18 Column, 130 Å, (2.1 mm×100 mm, 1.7 μm). The column effluent is injected into a Sciex API 5500 mass spectrometer for detection and quantitation. Male cynomolgus monkeys are administered a single intravenous dose (0.05 mg/kg) or oral formulation (10 mg/tablet) of Compound 1. […]

in vivo [3] = assay: in vivo; parameters: species or system cynomolgus monkeys; settings: cynomolgus monkey, iv
Protocol: Plasma concentrations of Compound 2 are determined by a LC/MS method. Compound 2 and an internal standard (IS) are extracted from 100% monkey plasma (25 μL) using 50 mM ammonium bicarbonate. After centrifugation, the supernatant is transferred and 2B10 biotinylated antibody along with 5C9 biotinylated antibody (5 μL each) are added. The samples are then centrifuged, T1 Streptavidin beads are added (20 μL) for 30 minutes, and the analyte is eluted from the beads with 30% acetonitrile with 5% formic acid in water followed by mixing. A final sample (10 μL) containing 31% acetonitrile in 10% formic acid is loaded onto a Supelco Analytical Discovery BIO Wide Pore C5-3, 5 cm×0.1 mm for LC/MS analysis. The plasma PK of Compound 2 is evaluated in male cynomolgus monkeys following a single IV dose (50 nmol/kg). Blood samples are collected over 504 hours. Plasma is harvested from blood samples by centrifugation and stored frozen until analysis. Plasma concentrations of Compound 2 are detected through 504 hours post-dose. PK parameters for one animal are extrapolated using the concentration versus time data up to 72 hours post-dose.

[4] = parameters: species or system cynomolgus monkeys; settings: cynomolgus monkey, in vivo, po
Protocol: High resolution liquid chromatography/mass spectrometry (HR-LC/MS) is used to measure the concentrations of Compound 2 in cynomolgus monkey plasma. Standards and controls are prepared in cynomolgus monkey plasma using Compound 2, and any dilutions required to bring samples into the quantitative range are also performed in control cynomolgus monkey plasma. To control assay variability, an IS is added to all the standards and samples.
For Studies with Examples 14, 15, 16, 17, 18, 19: Compound 2 and the IS are extracted from monkey plasma (50 μL) by protein precipitation using isopropyl alcohol and methanol (50:50 v/v). The samples are then centrifuged (4000 rpm for 10 minutes) and the supernatant is transferred to a Siricco Protein Precipitation Plate. After centrifugation (4000 rpm for 20 minutes), the samples are loaded on a Sep-Pak tC18 SPE microelution plate that is conditioned with 2% formic acid in water. […]
Pharmacokinetic (PK) parameters of Compound 2 are determined after a single 10-mg oral dose of Compound 2 in different formulations to male and female cynomolgus monkeys. […] Plasma concentrations of Compound 2 are detected through 504 hours post-dose.

In the case of `CC[C@H](C)[C@H](NC(=O)[C@H](CC(C)C)NC(=O)[C@](C)(Cc1ccc(O)cc1)NC(=O)[C@@H](CCC(=O)O)NC(=O)[C@@H](NC(=O)[C@H](Cc1ccccc1)NC(=O)[C@H](CCC(=O)O)NC(=O)C(C)(C)NC(=O)[C@H](CCC(N)=O)NC(=O)[C@H](C)NC(=O)[C@H](CCCCNC(=O)COCCOCCNC(=O)COCCOCCNC(=O)CC[C@H](NC(=O)CCCCCCCCCCCCCCCCC(=O)O)C(=O)O)NC(=O)[C@H](CCCN)NC(=O)[C@H](CC(=O)O)NC(=O)[C@H](CC(C)C)NC(=O)[C@](C)(CC(C)C)NC(=O)[C@@H](NC(=O)[C@H](CO)NC(=O)[C@H](Cc1ccncc1)NC(=O)[C@H](CC(=O)O)NC(=O)[C@H](CO)NC(=O)[C@@H](NC(=O)[C@](C)(Cc1ccccc1F)NC(=O)[C@@H](NC(=O)CNC(=O)[C@H](CCC(=O)O)NC(=O)C(C)(C)NC(=O)[C@@H](N)Cc1ccc(O)cc1)[C@@H](C)O)[C@@H](C)O)[C@@H](C)CC)[C@@H](C)CC)C(=O)N[C@@H](CCC(=O)O)C(=O)NCC(=O)NCC(=O)N1CCC[C@H]1C(=O)N[C@@H](CO)C(=O)N[C@@H](CO)C(=O)NCC(=O)N[C@@H](C)C(=O)N1CCC[C@H]1C(=O)N1CCC[C@H]1C(=O)N1CCC[C@H]1C(=O)N[C@@H](CO)C(N)=O` [Compound 2, Y-Aib-EGT-αMeF(2F)-TSD-4Pal-SI-αMeL-LD-Orn-K((2-[2-(2-Amino-ethoxy)-ethoxy]-acetyl)2-(γ-Glu)-CO-(CH2)16-CO2H)AQ-Aib-EFI-(D-Glu)-αMeY-LIEGGPSSGAPPPS-NH2], the “Oral Bioavailability Based on AUC (0-168)” value ([1]; 0.5 mg) is reported as 100%, the “Oral Bioavailability Based on AUC (0-∞)” value ([1]; 0.5 mg) is reported as 100% and the “Dose-Normalized AUC(0-168)” value ([1]; iv) is reported as 22800^e ^ ng · h/mL · mg. The “Dose-Normalized AUC(0-∞)” value ([1]; iv) was 49200^e ^ ng · h/mL · mg, the clearance (in vivo [2]; CL) was 13 mL/day/kg and the half-life (in vivo [2]; T1/2) was 96 h. For the same compound, the “Plasma concentrations detected through (post-dose)” value (in vivo [3]) was 504 h, the AUC0-inf (in vivo [3]; male, 50 nmol/kg) was 84.232 µM·h and the AUC(0-inf) (in vivo [3]; male, 50 nmol/kg) was 84.2 µM·h. For the same compound, the CL (in vivo [3]; male, 50 nmol/kg) was 14.2 mL/day/kg, the clearance (in vivo [3]; male, 50 nmol/kg) was 14.2 mL/day/kg and the Cmax (in vivo [3]; male, 50 nmol/kg, Cmax) was 1050 nM. The half-life (in vivo [3]; male, 50 nmol/kg, T1/2) was 84 h and the “Plasma concentrations detected through (post-dose)” value [4] was 504 h.
